Experiments:
[1] = tested on: IgG in plasma of HLA-A2^+ healthy donors and prostate cancer patients; test: Peptide-specific IgG in plasma by ELISA (HLA-A2-binding PTHrP peptides); design: species or system human; conditions: for IgG reactive to the peptide in plasma (difference of OD): 1:100-diluted plasma
Procedure: Peptide-specific IgG levels in the plasma were measured by ELISA, as previously reported. In brief, peptide (20 μg/well)-immobilized plates were blocked with Block Ace (Yukijirushi, Tokyo, Japan) and washed with 0.05% Tween20-PBS, after which 100 μl/well of plasma sample diluted with 0.05% Tween20-Block Ace was added to the plate. After 2 hours incubation at 37° C., the plates were washed and further incubated for 2 hours with a 1:1000-diluted rabbit anti-human IgG (γ-chain-specific) (DAKO, Glostrup, Denmark). The plates were washed, and then 100 μl of 1:100-diluted goat anti-rabbit IgG-conjugated horseradish peroxidase (EnVision, DAKO) was added to each well, and the plates were then incubated at room temperature for 40 min. After the plates were washed once, 100 μl/well of tetramethyl benzidine substrate solution (KPL, Guildford, UK) was added, and the reaction was stopped by the addition of 1 M phosphoric acid. The values are shown as optical density (OD) units/ml, and responses to the HIV peptide were subtracted. IgG reactive to a corresponding PTHrP peptide was judged to be positive when the difference of the OD in 1:100-diluted plasma exceeded 0.05. The results that IgG reactive to either the PTHrP102-111 or the […] peptide was detected in 8 of 10 healthy donors and in 7 of 10 prostate cancers are shown in Table 2 hereinafter.
In a similar way to Example 3, it was examined whether IgGs reactive to peptides of PTHrP 42-51 and PTHrP 59-67 could be detected in the plasma of 10 healthy donors and 10 cancer patients. The cut-off value at 1:100-diluted plasma was ODO.054.

[2] = tested on: PBMCs of HLA-A2^+ healthy donors and prostate cancer patients; test: Assay for peptide-specific CTLs in PBMCs (IFN-γ ELISA, peptide-pulsed T2 cells); assay type: cell-based, human; conditions: for INF-γ production: T2 cells
[3] = HLA-A2^+ prostate cancer patients

- IgG reactive to the peptide in plasma (difference of OD) ([1]; HLA-A2^+ healthy donor #6): 0.0865 OD
- IgG reactive to the peptide in plasma (difference of OD) ([1]; HLA-A2^+ healthy donor #7): 0.089 OD
- IgG reactive to the peptide in plasma (difference of OD) ([1]; HLA-A2^+ healthy donor #8): 0.193 OD
- IgG reactive to the peptide in plasma (difference of OD) ([1]; HLA-A2^+ healthy donor #9): 0.0925 OD
- IgG reactive to the peptide in plasma (difference of OD) ([1]; HLA-A2^+ healthy donor #10): 0.099 OD
- Total (IgG-positive donors / donors tested) ([1]; HLA-A2^+ healthy donors): 5/10
- IgG reactive to the peptide in plasma (difference of OD) ([1]; HLA-A2^+ prostate cancer patient #3): 0.078 OD
- IgG reactive to the peptide in plasma (difference of OD) ([1]; HLA-A2^+ prostate cancer patient #10): 0.1515 OD
- Total (IgG-positive patients / patients tested) [1, 3]: 2/10
Sequence: TSTTSLELD [PTHrP 165-173, previously reported PTHrP peptide generating CTLs from HLA-A*0201 healthy donors [17], reference compound]
- IgG reactive to the peptide in plasma (difference of OD) ([1]; HLA-A2^+ healthy donor #1): — (IgG reactive to a corresponding peptide was judged to be positive when a difference of OD in a 1:100-diluted plasma was more than 0.054.)
- IgG reactive to the peptide in plasma (difference of OD) ([1]; HLA-A2^+ healthy donor #2): — (IgG reactive to a corresponding peptide was judged to be positive when a difference of OD in a 1:100-diluted plasma was more than 0.054.)
- IgG reactive to the peptide in plasma (difference of OD) ([1]; HLA-A2^+ healthy donor #3): — (IgG reactive to a corresponding peptide was judged to be positive when a difference of OD in a 1:100-diluted plasma was more than 0.054.)
- IgG reactive to the peptide in plasma (difference of OD) ([1]; HLA-A2^+ healthy donor #4): — (IgG reactive to a corresponding peptide was judged to be positive when a difference of OD in a 1:100-diluted plasma was more than 0.054.)
- IgG reactive to the peptide in plasma (difference of OD) ([1]; HLA-A2^+ healthy donor #5): — (IgG reactive to a corresponding peptide was judged to be positive when a difference of OD in a 1:100-diluted plasma was more than 0.054.)
- IgG reactive to the peptide in plasma (difference of OD) ([1]; HLA-A2^+ prostate cancer patient #1): — (IgG reactive to a corresponding peptide was judged to be positive when a difference of OD in a 1:100-diluted plasma was more than 0.054.)
- IgG reactive to the peptide in plasma (difference of OD) ([1]; HLA-A2^+ prostate cancer patient #2): — (IgG reactive to a corresponding peptide was judged to be positive when a difference of OD in a 1:100-diluted plasma was more than 0.054.)
- IgG reactive to the peptide in plasma (difference of OD) ([1]; HLA-A2^+ prostate cancer patient #4): — (IgG reactive to a corresponding peptide was judged to be positive when a difference of OD in a 1:100-diluted plasma was more than 0.054.)
- IgG reactive to the peptide in plasma (difference of OD) ([1]; HLA-A2^+ prostate cancer patient #5): — (IgG reactive to a corresponding peptide was judged to be positive when a difference of OD in a 1:100-diluted plasma was more than 0.054.)
- IgG reactive to the peptide in plasma (difference of OD) ([1]; HLA-A2^+ prostate cancer patient #6): — (IgG reactive to a corresponding peptide was judged to be positive when a difference of OD in a 1:100-diluted plasma was more than 0.054.)
- IgG reactive to the peptide in plasma (difference of OD) ([1]; HLA-A2^+ prostate cancer patient #7): — (IgG reactive to a corresponding peptide was judged to be positive when a difference of OD in a 1:100-diluted plasma was more than 0.054.)
- IgG reactive to the peptide in plasma (difference of OD) ([1]; HLA-A2^+ prostate cancer patient #8): — (IgG reactive to a corresponding peptide was judged to be positive when a difference of OD in a 1:100-diluted plasma was more than 0.054.)
- IgG reactive to the peptide in plasma (difference of OD) ([1]; HLA-A2^+ prostate cancer patient #9): — (IgG reactive to a corresponding peptide was judged to be positive when a difference of OD in a 1:100-diluted plasma was more than 0.054.)
- INF-γ production ([2]; HLA-A2^+ healthy donor #1 (A0201)): 0 pg/mL
- INF-γ production ([2]; HLA-A2^+ healthy donor #2 (A0201)): 222 pg/mL
- INF-γ production ([2]; HLA-A2^+ healthy donor #3 (A0201)): 0 pg/mL
- INF-γ production ([2]; HLA-A2^+ healthy donor #4 (A0201)): 294 pg/mL
- INF-γ production ([2]; HLA-A2^+ healthy donor #5 (A0206)): 0 pg/mL
- INF-γ production ([2]; HLA-A2^+ healthy donor #6 (A0206)): 0 pg/mL
- INF-γ production ([2]; HLA-A2^+ healthy donor #7 (A0206)): 27 pg/mL
- INF-γ production ([2]; HLA-A2^+ healthy donor #8 (A0206)): 325 pg/mL
- INF-γ production ([2]; HLA-A2^+ healthy donor #9 (A0206)): 395 pg/mL
- INF-γ production ([2]; HLA-A2^+ healthy donor #10 (A0207)): 46 pg/mL
- induced peptide-specific CTLs, number of donors ([2]; HLA-A2^+ healthy donors): 4 of 10
- Total (donors with significant peptide-specific IFN-γ production / donors tested) ([2]; HLA-A2^+ healthy donors, p < 0.05): 4/10
- INF-γ production ([2]; HLA-A2^+ prostate cancer patient #1 (A0206)): 202 pg/mL
- INF-γ production ([2]; HLA-A2^+ prostate cancer patient #2 (A0210)): 26 pg/mL
- INF-γ production ([2]; HLA-A2^+ prostate cancer patient #3 (A0210)): 60 pg/mL
- INF-γ production ([2]; HLA-A2^+ prostate cancer patient #4 (A0206)): 151 pg/mL
- INF-γ production ([2]; HLA-A2^+ prostate cancer patient #5 (A0206)): 103 pg/mL
- INF-γ production ([2]; HLA-A2^+ prostate cancer patient #6 (A0207)): 0 pg/mL
- INF-γ production ([2]; HLA-A2^+ prostate cancer patient #7 (A0206)): 0 pg/mL
- INF-γ production ([2]; HLA-A2^+ prostate cancer patient #8 (A0206)): 80 pg/mL
- INF-γ production ([2]; HLA-A2^+ prostate cancer patient #9 (A0201)): 0 pg/mL
- INF-γ production ([2]; HLA-A2^+ prostate cancer patient #10 (A0201)): 24 pg/mL
- induced peptide-specific CTLs (peptide-specific IFN-γ production), number of patients [2, 3]: 3 of 10
- Total (patients with significant peptide-specific IFN-γ production / patients tested) ([2]; HLA-A2^+ prostate cancer patients, p < 0.05): 3/10

— US20080014186A1, “Hla-A24 or Hla-A2 Binding Peptides of Parathyroid Hormone-Related Protein” (GREEN PEPTIDE CO., LTD., priority 2004, published 2008)
